Values after ≈ are worked out from the molar mass of the structure shown.
tested on: Ileum; test: (§1) Spasmolytic activity in isolated guinea pig ileum assessed as spasmogen-induced inhibition of smooth muscle contraction at 10 ug; assay type: functional, Cavia porcellus; set-up: scale not given: the % may be the effect or the level left; conditions: not given

SMILES	Activity [%]
COc1cc2c(cc1OC)[C@H]1[C@@H](C)c3ccc4c(c3CN1CC2)OCO4 [CAVIDINE]	84
COc1cc2c(cc1OC)[C@@H]([C@H]1OC(=O)c3c1ccc1c3OCO1)N(C)CC2 [CORLUMINE]	0
COc1cc2c(cc1OC)-c1c(C)c3ccc4c(c3c[n+]1CC2)OCO4.[Cl-] [DEHYDROCAVIDINE]	20
COc1cc2c(cc1OC)C1(C(=O)c3ccc4c(c3[C@H]1O)OCO4)N(C)CC2 (stereo partly drawn) [YENHUSOMIDINE]	17

tested on: Ileum; test: as §1; assay type: functional, Cavia porcellus; set-up: scale not given: the % may be the effect or the level left; conditions: not given

SMILES	Activity [%]
COc1cc2c(cc1OC)[C@H]1[C@@H](C)c3ccc4c(c3CN1CC2)OCO4 [CAVIDINE]	100
COc1cc2c(cc1OC)[C@@H]([C@H]1OC(=O)c3c1ccc1c3OCO1)N(C)CC2 [CORLUMINE]	50
COc1cc2c(cc1OC)-c1c(C)c3ccc4c(c3c[n+]1CC2)OCO4.[Cl-] [DEHYDROCAVIDINE]	40
COc1cc2c(cc1OC)C1(C(=O)c3ccc4c(c3[C@H]1O)OCO4)N(C)CC2 (stereo partly drawn) [YENHUSOMIDINE]	52

tested on: Ileum; test: Spasmolytic activity in isolated guinea pig ileum assessed as spasmogen-induced inhibition of smooth muscle contraction; assay type: functional, tissue-based; conditions: Cavia porcellus

IC50 [µg/mL]	SMILES	Activity
–	COc1cc2c(cc1OC)[C@H]1[C@@H](C)c3ccc4c(c3CN1CC2)OCO4 [CAVIDINE]	Dose-dependent effect
–	COc1cc2c(cc1OC)[C@@H]([C@H]1OC(=O)c3c1ccc1c3OCO1)N(C)CC2 [CORLUMINE]	Dose-dependent effect
–	COc1cc2c(cc1OC)-c1c(C)c3ccc4c(c3c[n+]1CC2)OCO4.[Cl-] [DEHYDROCAVIDINE]	Dose-dependent effect
0.5 (≈ 1.3 µM)	COc1cc2c(cc1OC)C1(C(=O)c3ccc4c(c3[C@H]1O)OCO4)N(C)CC2 (stereo partly drawn) [YENHUSOMIDINE]	Dose-dependent effect

— ChEMBL document CHEMBL1145659, “The alkaloids of Corydalis meifolia” (J Nat Prod, 1983)
